Patent US7691572B2, “Method and kit for detecting resistance to antiviral drugs” (priority 1998, dated 2010)

Key:
Format in all cases: biochemical
HIV-1 RT = HIV-1 RT (Human immunodeficiency virus type 1 group M subtype B, UniProt P04585); experiment: Amp-RT assay, AZT-TP and other NRTI-TPs, reference viruses; set-up: The susceptibility of HIV-1 RT activity from viral isolates or plasma samples; made in house
[1] = biological target: T1, recombinant p66/p51 HIV-1 reverse transcriptase (Human immunodeficiency virus type 1 group M subtype B, UniProt P04585); experiment: 3HdCTP incorporation assay with recombinant RT; settings: read-out: concentration resulting in 50% inhibition of incorporation of 3HdCTP; (rI)n-dC12-18 template primer
T1 construct: recombinant p66/p51 HIV-1 reverse transcriptase; purchased Biotechnology General, Rehovot, Israel
Experimental: Wild type HIV-1SUM9, and multiple dideoxy nucleoside-resistant HIV-1SUM8 (Q151M mutation), HIV-1SUM12 (F77L/F116Y/Q151M) and HIV-1SUM13 (A62V/V751/F77L/F116Y/Q151M) MICs were provided by Dr. Mitsuya as described by Shirasaka et al., Proc. Natl. Acad. Sci. USA 92: 2398-2402 (1995). The synthesis and preparation of 3TC-TP were carried out as described by Schinazi et al., Antimicrob. Agents Chemother. 36: 2423-2431 (1992). The crude 3TC-5-TP was purified by FPLC using a HiLoad 26/10Q Sepharose Fast Flow™ Pharmacia chromatography column (Pharmacia, Piscataway, N.J.) and gradient of TEAE buffer (pH 7.0). The compound was characterized by UV spectroscopy, proton and phosphorous NMR, mass spectroscopy and HPLC.

[2] = test system: plasma HIV-1 reverse transcriptase; experiment: Amp-RT assay, inhibition by 3TC-TP, plasma samples of patients; settings: for Inhibition of RT(%): 5 uM 3TC-TP
Experimental: The phenotypic assay used in this example was based on the analysis of the susceptibility of HIV-1 reverse transcriptase activity from plasma to inhibition by 3TC-TP.
For culture supernatant, 10 μl were directly used for the reverse transcriptase reaction. The analysis of phenotypic resistance in plasma samples was made in plasma-free virus pellets as described in the protocol set forth in FIG. 1B.
Amp-RT detects reverse transcriptase activity by using a heterologous RNA template derived from the encephalomyocarditis virus (EMCV), a complementary DNA oligoprimer, and PCR amplification of reverse transcriptase-generated EMCV cDNA. […] To determine the susceptibility of the reverse transcriptase to 3TC-TP, an additional Amp-RT reaction was made in the presence of 3TC-TP, with concentrations of 3TC-TP ranging from 0.1 to 10 μM. […] PCR amplification of reverse transcriptase products was made as follows after the addition of 200 μM of each dNTP. A volume of 50 μl of PCR buffer containing 2.5 units of Taq polymerase, 100 ng of the sense primer EMCF1, and 200 μM of each dNTP was added to the reverse transcriptase mixture.
A total of 30 EDTA-plasma samples from 15 HIV-1-infected patients from the Veteran Administration Medical Center, Decatur, Ga., were studied. The samples were collected from patients before and during anti-retroviral therapy with 3TC. The Amp-RT-based phenotypic assay was done under code with respect to date of serial bleed and reverse transcriptase genotype. One plasma specimen from a blood donor who tested antibody negative for HIV-1/2, HTLV-I/II was used as an assay negative control.

[3] = 5 μM 3TC-TP, pretreatment samples (n=12)
[4] = sample 1E, 12 weeks, AZT/3TC, V/M184
[5] = sample 1F, 18 weeks, AZT/3TC, V184
[6] = sample 2F, 12 weeks, AZT/3TC, V184
[7] = sample 3F, 12 weeks, AZT/3TC, M/V184
[8] = sample 3G, 21 weeks, AZT/3TC, V184
[9] = sample 6B, 12 weeks, AZT/3TC, V184
[10] = sample 8B, 8 weeks, AZT/3TC, V184
[11] = sample 9F, 12 weeks, AZT/3TC, V184
[12] = sample 10A, 4 weeks, AZT/3TC, M184
[13] = sample 10C, 12 weeks, AZT/3TC, M/V184
[14] = sample 10G, 52 weeks, AZT/3TC, V184
[15] = sample 11A, 12 weeks, AZT/3TC, V/M184
[16] = sample 11C, 36 weeks, AZT/3TC, V184
[17] = sample 12E, 28 weeks, AZT/3TC, V184
[18] = sample 13A, Pre, d4T, M184, N69, R70
[19] = sample 13F, 60 weeks, d4T/3TC/IND, V184
[20] = sample 14A, 1 week, AZT/3TC, M184, D69
[21] = sample 14F, 44 weeks, IND/3TC, V184
[22] = sample 15A, Pre, AZT, M184, D69
[23] = sample 15D, 40 weeks, AZT/3TC/IND, V184
[24] = 5 μM 3TC-TP, samples with 184V only
[25] = 5 μM 3TC-TP, samples with mixtures of wild type and resistant genotypes

## Cc1cn([C@H]2C[C@H](N=[N+]=[N-])[C@@H](COP(=O)(O)OP(=O)(O)OP(=O)(O)O)O2)c(=O)[nH]c1=O [AZT-TP, AZT-triphosphate]
HIV-1 RT; 1 μM AZT-TP, HIV-1HXB2, WT
  % inhibition (SEM): 98 (±2) %
HIV-1 RT; WT HIV-1HXB2
  IC50: 500 nM
  IC90: 900 nM

## Nc1ccn([C@@H]2CS[C@H](COP(=O)(O)OP(=O)(O)OP(=O)(O)O)O2)c(=O)n1 [3TC-TP, 3TC-5′-triphosphate]
[1]
  IC50: 1300 nM
[2]; [3]
  mean reverse transcriptase inhibition: 98.7%
  median reverse transcriptase inhibition: 99.8%
[2]; sample 1B, Pre, AZT/ddC, M184
  Inhibition of RT(%): 100%
[2]; [4]
  Inhibition of RT(%): 75.6%
  RT activity With 3TC-TP (5 uM): 5.1 × 10^−7 units/ml
[2]; [5]
  Inhibition of RT(%): 75.9%
  RT activity With 3TC-TP (5 uM): 3.3 × 10^−8 units/ml
[2]; sample 2B, Pre, AZT/ddC, M184
  Inhibition of RT(%): 99.7%
  RT activity With 3TC-TP (5 uM): 6.3 × 10^−9 units/ml
[2]; [6]
  Inhibition of RT(%): 68%
  RT activity With 3TC-TP (5 uM): 4.7 × 10^−7 units/ml
[2]; sample 3B, Pre, AZT, M184
  Inhibition of RT(%): 99.4%
  RT activity With 3TC-TP (5 uM): 1.7 × 10^−8 units/ml
[2]; [7]
  Inhibition of RT(%): 92.3%
  RT activity With 3TC-TP (5 uM): 1.2 × 10^−9 units/ml
[2]; [8]
  Inhibition of RT(%): 0%
  RT activity With 3TC-TP (5 uM): 1.0 × 10^−8 units/ml
[2]; sample 4A, Pre, AZT, M184
  Inhibition of RT(%): 99.9%
  RT activity With 3TC-TP (5 uM): 1.2 × 10^−10 units/ml
[2]; sample 5A, Pre, AZT, M184
  Inhibition of RT(%): 100%
[2]; sample 6A, Pre, None, M184
  Inhibition of RT(%): 99.9%
  RT activity With 3TC-TP (5 uM): 3.6 × 10^−8 units/ml
[2]; [9]
  Inhibition of RT(%): 34.7%
  RT activity With 3TC-TP (5 uM): 1.5 × 10^−5 units/ml
[2]; sample 7A, Pre, None, M/I184
  Inhibition of RT(%): 100%
[2]; sample 8A, Pre, AZT, M184
  Inhibition of RT(%): 99.9%
  RT activity With 3TC-TP (5 uM): 5.7 × 10^−8 units/ml
[2]; [10]
  Inhibition of RT(%): 15%
  RT activity With 3TC-TP (5 uM): 4.3 × 10^−5 units/ml
[2]; sample 9A, Pre, d4T, M184
  Inhibition of RT(%): 97.8%
  RT activity With 3TC-TP (5 uM): 6.3 × 10^−8 units/ml
[2]; [11]
  Inhibition of RT(%): 47%
  RT activity With 3TC-TP (5 uM): 1.1 × 10^−6 units/ml
[2]; [12]
  Inhibition of RT(%): 87.8%
  RT activity With 3TC-TP (5 uM): 9.1 × 10^−6 units/ml
[2]; [13]
  Inhibition of RT(%): 0%
  RT activity With 3TC-TP (5 uM): 1.9 × 10^−7 units/ml
[2]; [14]
  Inhibition of RT(%): 0%
  RT activity With 3TC-TP (5 uM): 3.5 × 10^−5 units/ml
[2]; [15]
  Inhibition of RT(%): 29.1%
  RT activity With 3TC-TP (5 uM): 1.3 × 10^−7 units/ml
[2]; [16]
  Inhibition of RT(%): 58.5%
  RT activity With 3TC-TP (5 uM): 7.0 × 10^−8 units/ml
[2]; sample 12A, Pre, AZT, M184
  Inhibition of RT(%): 96.3%
  RT activity With 3TC-TP (5 uM): 9.2 × 10^−7 units/ml
[2]; [17]
  Inhibition of RT(%): 70%
  RT activity With 3TC-TP (5 uM): 5.1 × 10^−7 units/ml
[2]; [18]
  Inhibition of RT(%): 95.9%
  RT activity With 3TC-TP (5 uM): 6.2 × 10^−8 units/ml
[2]; [19]
  Inhibition of RT(%): 0%
  RT activity With 3TC-TP (5 uM): 7.4 × 10^−5 units/ml
[2]; [20]
  Inhibition of RT(%): 94.7%
  RT activity With 3TC-TP (5 uM): 1.3 × 10^−8 units/ml
[2]; [21]
  Inhibition of RT(%): 0%
  RT activity With 3TC-TP (5 uM): 5.1 × 10^−9 units/ml
[2]; [22]
  Inhibition of RT(%): 95.5%
  RT activity With 3TC-TP (5 uM): 4.0 × 10^−6 units/ml
[2]; [23]
  Inhibition of RT(%): 0%
  RT activity With 3TC-TP (5 uM): 2.4 × 10^−10 units/ml
[2]; 5 μM 3TC-TP, samples after 1 to 60 weeks of therapy with 3TC (n=18)
  reverse transcriptase inhibition values: less than 95%
[2]; [24]
  mean inhibition: 30.8%
  median inhibition: 24.9%
[2]; [25]
  mean inhibition: 49.3%
  median inhibition: 52.4%
